Assay: xn = mol fraction of the nth substance listed

CCCCn1cc[n+](C)c1.F[P-](F)(F)(F)(F)F + NCCO
viscosity [mPa·s], 101 kPa
Settings	x2 = 0.1185	x2 = 0.2113	x2 = 0.3052	x2 = 0.4282	x2 = 0.4918	x2 = 0.6161	x2 = 0.6984	x2 = 0.8022	x2 = 0.9028
293.15 K	–	124.5	102.5	78.15	68.3	51.7	43.55	34.1	27.33
298.15 K	–	92.28	76.44	58.74	51.63	39.18	33.39	26.29	–
303.15 K	–	–	57.84	44.92	39.41	30.4	25.89	–	–
308.15 K	67.48	54.83	44.08	34.54	30.31	–	–	–	–
313.15 K	–	42.41	34.89	27.36	–	–	–	–	–
318.15 K	42.44	33.84	28.14	–	–	–	–	–	9.08
323.15 K	34.88	28.08	–	–	–	–	–	9.09	7.67

[Na+].[O-][Cl+2]([O-])[O-] + O
viscosity [mPa·s], 100 kPa
Settings	x1 = 0.001798	x1 = 0.003644	x1 = 0.005393	x1 = 0.007261	x1 = 0.008945	x1 = 0.01087	x1 = 0.01261	x1 = 0.01436	x1 = 0.01582	x1 = 0.01761
293.15 K	0.996	1.007	1.017	1.025	1.033	1.042	1.05	1.058	1.067	1.076
298.15 K	0.889	0.897	0.908	0.918	0.926	0.933	0.942	0.949	0.957	0.965
303.15 K	0.801	0.809	0.817	0.827	0.835	0.841	0.849	0.857	0.865	0.873
308.15 K	0.726	0.734	0.742	0.75	0.758	0.765	0.774	0.781	0.788	0.796
313.15 K	0.663	0.67	0.678	0.685	0.693	0.7	0.708	0.716	0.723	0.729
318.15 K	0.609	0.616	0.623	0.631	0.637	0.643	0.65	0.657	0.665	0.672

CC(F)(F)F + FC(F)C(F)(F)F
viscosity [mPa·s], 101 kPa
Settings	x1 = 0.248	x1 = 0.5	x1 = 0.759
298.15 K	0.1286	0.1205	0.117
313.15 K	0.1036	–	–

C=CC(=O)OCC + CCCCC(C)O
viscosity [mPa·s], 101 kPa
Settings	298.15 K	308.15 K
x1 = 0.05505	3.659	2.636
x1 = 0.09982	3.336	2.426
x1 = 0.1555	2.973	2.188
x1 = 0.1998	2.712	2.015
x1 = 0.2555	2.417	1.817
x1 = 0.2999	2.205	1.673
x1 = 0.3554	1.965	1.509
x1 = 0.3999	1.793	1.389
x1 = 0.4555	1.598	1.253
x1 = 0.4999	1.458	1.154
x1 = 0.5556	1.299	1.04
x1 = 0.5999	1.185	0.958
x1 = 0.6554	1.056	0.864
x1 = 0.6995	0.964	0.797
x1 = 0.7554	0.859	0.718
x1 = 0.7999	0.783	0.661
x1 = 0.8555	0.698	0.596
x1 = 0.8999	0.637	0.549
x1 = 0.9555	0.568	0.495

COC(C)(C)C + C1CCCCC1
303.15 K, 101 kPa
Settings	viscosity [mPa·s]
x1 = 0.132	0.693
x1 = 0.2612	0.609
x1 = 0.3989	0.536
x1 = 0.5216	0.485
x1 = 0.5654	0.466
x1 = 0.7149	0.42
x1 = 0.8393	0.384

COC(C)(C)C + CCCCCC
303.15 K, 101 kPa
Settings	viscosity [mPa·s]
x1 = 0.1579	0.314
x1 = 0.2829	0.318
x1 = 0.3671	0.321
x1 = 0.4436	0.323
x1 = 0.5404	0.327
x1 = 0.604	0.33
x1 = 0.7122	0.335
x1 = 0.8674	0.342

Clc1ccccc1 + CCCCOC(C)=O
viscosity [mPa·s], 101 kPa
Settings	298.15 K	308.15 K
x2 = 0.0484	0.744	0.669
x2 = 0.1504	0.723	0.651
x2 = 0.2515	0.706	0.636
x2 = 0.349	0.692	0.624
x2 = 0.4447	0.682	0.614
x2 = 0.4933	0.678	0.61
x2 = 0.5503	0.674	0.605
x2 = 0.6502	0.669	0.599
x2 = 0.7514	0.667	0.595
x2 = 0.8498	0.668	0.593
x2 = 0.9417	0.671	0.593

CCOP(=O)(OCC)OCC + CN(C)C=O
298.15 K, 101.3 kPa
Settings	viscosity [mPa·s]
x1 = 0.1003	0.883
x1 = 0.2008	0.967
x1 = 0.298	1.044
x1 = 0.398	1.123
x1 = 0.4979	1.195
x1 = 0.6076	1.268
x1 = 0.6995	1.329
x1 = 0.7969	1.389
x1 = 0.8973	1.447

Clc1ccccc1 + CS(C)=O
viscosity [mPa·s]
Settings	298.15 K	299 K	308.15 K	318.15 K
101 kPa, x2 = 0.0871	–	1.227	–	–
101 kPa, x2 = 0.2483	–	1.401	–	–
101 kPa, x2 = 0.462	–	1.715	–	–
101 kPa, x2 = 0.5887	–	2.067	–	–
101 kPa, x2 = 0.7046	–	2.357	–	–
101 kPa, x2 = 0.8612	–	2.819	–	–
101.3 kPa, x1 = 0.035	1.865	–	1.559	1.273
101.3 kPa, x1 = 0.072	1.803	–	1.474	1.224
101.3 kPa, x1 = 0.148	1.682	–	1.39	1.142
101.3 kPa, x1 = 0.23	1.564	–	1.29	1.098
101.3 kPa, x1 = 0.317	1.421	–	1.17	1.021
101.3 kPa, x1 = 0.411	1.299	–	1.077	0.927
101.3 kPa, x1 = 0.511	1.193	–	0.986	0.865
101.3 kPa, x1 = 0.619	1.085	–	0.929	0.833
101.3 kPa, x1 = 0.736	0.966	–	0.823	0.742
101.3 kPa, x1 = 0.863	0.866	–	0.733	0.668
101.3 kPa, x1 = 0.936	0.826	–	0.704	0.643
101.33 kPa, x2 = 0.1	0.826	–	0.738	0.656
101.33 kPa, x2 = 0.2	0.905	–	0.807	0.709
101.33 kPa, x2 = 0.3	0.993	–	0.88	0.769
101.33 kPa, x2 = 0.4	1.094	–	0.958	0.832
101.33 kPa, x2 = 0.5	1.206	–	1.043	0.902
101.33 kPa, x2 = 0.6	1.329	–	1.136	0.981
101.33 kPa, x2 = 0.7	1.466	–	1.239	1.068
101.33 kPa, x2 = 0.8	1.616	–	1.361	1.165
101.33 kPa, x2 = 0.9	1.784	–	1.5	1.274

N#CCCCCC#N + CCCCOC(C)=O
303.15 K, 101.33 kPa
Settings	viscosity [mPa·s]
x1 = 0.0984	0.7145
x1 = 0.3003	1.052
x1 = 0.3857	1.281
x1 = 0.4963	1.663
x1 = 0.5929	2.082
x1 = 0.6974	2.631
x1 = 0.8455	3.61

Clc1ccccc1 + COC(=O)OC
Settings	viscosity [mPa·s]
298.15 K, 101 kPa, x2 = 0.238	0.7093

COC(C)(C)C + CCCCCCO
viscosity [mPa·s], 101 kPa
Settings	x1 = 0.0204	x1 = 0.0304	x1 = 0.0495
298.15 K	4.315	4.175	3.925
303.15 K	–	–	3.395

COCCOCCOCCOCCOC + COC(=O)OC
298.15 K, 101.33 kPa
Settings	viscosity [mPa·s]
x1 = 0.0013	0.595
x1 = 0.0051	0.603
x1 = 0.0117	0.623
x1 = 0.0228	0.642
x1 = 0.0349	0.673
x1 = 0.0584	0.726
x1 = 0.0861	0.792
x1 = 0.1164	0.875
x1 = 0.1595	0.994
x1 = 0.2094	1.132
x1 = 0.3042	1.414
x1 = 0.3316	1.499
x1 = 0.3593	1.576
x1 = 0.3994	1.703
x1 = 0.4379	1.815
x1 = 0.477	1.945
x1 = 0.5477	2.159
x1 = 0.6174	2.382
x1 = 0.6892	2.606
x1 = 0.7492	2.781
x1 = 0.7839	2.888
x1 = 0.8643	3.113
x1 = 0.9142	3.237
x1 = 0.949	3.324
x1 = 0.9732	3.369

COC(C)(C)C + CCCCCCCC
viscosity [mPa·s], 101 kPa
Settings	293.15 K	298.15 K	303.15 K	308.15 K
x1 = 0.0937	0.5238	0.5009	0.4686	0.4492
x1 = 0.1345	–	–	0.444	–
x1 = 0.1875	0.5065	0.4844	0.454	0.4355
x1 = 0.2831	–	–	0.423	–
x1 = 0.2942	0.4873	0.4666	0.4382	0.4201
x1 = 0.3682	–	–	0.417	–
x1 = 0.412	0.4668	0.447	0.4207	0.4035
x1 = 0.4989	–	–	0.406	–
x1 = 0.511	0.4502	0.4313	0.4067	0.3903
x1 = 0.5482	–	–	0.401	–
x1 = 0.5952	0.4367	0.4189	0.3957	0.3793
x1 = 0.699	0.4201	0.4027	0.3811	0.3653
x1 = 0.791	–	–	0.388	–
x1 = 0.7965	0.4039	0.3871	–	0.3518
x1 = 0.8407	–	–	0.381	–
x1 = 0.9009	0.3867	0.3707	0.3523	0.3376

N#CCCCCC#N + CC(=O)N(C)C
303.15 K, 101.33 kPa
Settings	viscosity [mPa·s]
x1 = 0.0999	0.9801
x1 = 0.2976	1.363
x1 = 0.3998	1.666
x1 = 0.4988	2.029
x1 = 0.5898	2.42
x1 = 0.699	2.965
x1 = 0.8491	3.85

CCCC(C)C + CCCCCCCCCCCCCC
298 K, 101.33 kPa
Settings	viscosity [mPa·s]
x1 = 0.1041	1.795
x1 = 0.2003	1.595
x1 = 0.3021	1.362
x1 = 0.4053	1.136
x1 = 0.5024	0.9502
x1 = 0.6012	0.7806
x1 = 0.7022	0.6276
x1 = 0.8003	0.4899
x1 = 0.8985	0.3762
